Here are results for one compound from patent US6413976B1, “Compositions and method for decreasing neuropathic pain” (Trustees of Dartmouth College, priority 1999, dated 2002).

Data set [1] has as its system humans with neurodegenerative disease. The following applies: Alzheimer's Disease and vascular dementia; cited from earlier work.
For data set [2] the following is noted: oral dosing; cited from earlier work.
Data set [3] has as its system spinal nerve transection in the rat. Kind of data set: Spinal nerve transection model of chronic neuropathic pain, mechanical allodynia (von Frey filaments). The class given is in vivo. The following applies: for mechanical allodynia: L5 spinal nerve transection, dose-dependent. The procedure:
Experiments were performed using a well-established animal model for chronic pain, spinal nerve transection in the rat. The model measures changes in mechanical allodynia, or an increased sensitivity following non-noxious stimulus, such as touch. Rats were injected intraperitdneally one day before and then daily for ten days following nerve transection. […] The effect was dose-dependent, with larger reductions seen with higher doses of the drug.
The same model. was used with rats injected intrathecally with either saline or propentofylline (1 or 3 μg), daily for 10 days. […] The responses were also dose-dependent with the largest reduction seen at the highest dose tested.
Surgery was performed under inhalation anesthesia using halothane in 100% oxygen at 4% and maintained at 2%. Each rat received a single unilateral lesion directed at a left L5 spinal root or spinal nerve. The nerve was identified, freed from adjacent nerves and transected. For sham lesions, a minilaminectomy was performed of the L5 vertebral segment without lesioning. Animals were allowed to recover from anesthesia and were not subjected to any additional surgical procedures or anesthesia until the end of the study when they were euthanized.
Propentofylline was injected intraperitoneally at doses of 1 and 10 mg/kg the day before and for each day of testing (10 days). Saline injections served as a control. Other rats were injected intrathecally at doses of 1 and 3 μg on each day of testing.
Mechanical hypersensitivity was measured as the frequency of foot withdrawals elicited by a defined mechanical stimulus. […]
In blinded testing, rats were subjected to sequential series of 10 tactile stimulations to the plantar surface of the ipsilateral hindpaw using 2 and 12 gauge von Frey filaments (Stoelting Co., WoodDale, Ill.) sequentially. […] Mechanical sensitivity was assessed by recording the total number of responses elicited during three successive trials separated by at least 10 minutes.

Consider `CCCn1cnc2c1c(=O)n(CCCCC(C)=O)c(=O)n2C` [propentofylline, Propentofylline], for which the “safety and efficacy in clinical trials” value in data set [1] was “both safe and effective”. The absorption and metabolism result in data set [2] was “well absorbed and extensively metabolized”. The mechanical allodynia result in data set [3] (intraperitoneal 1 and 10 mg/kg, one day before and daily for ten days) is “significant decrease in mechanical allodynia”; in data set [3] (intrathecal 1 or 3 μg daily for 10 days vs saline), “significant decrease in mechanical allodynia”. For the same compound, the “responses to stimulation (foot withdrawals to von Frey filaments)” value in data set [3] (increasing doses, both central and peripheral routes) is recorded as “dose-dependent decreases in responses to stimulation”.
